Among the data in patent publication US20080167314A1, “Condensed Imidazole Compound And Use Thereof” (priority 2004, published 2008) are melting point values, retold here.

As a reminder, the melting point is the temperature, or range, at which the solid turns liquid.

Structures can show the parent of a compound that is named as a salt.

`Cc1cc(-c2nc3cccnn3c2-c2ccnc(NC(=O)NCCCCO)c2)ccc1F.Cl` displayed a melting point of 188 to 189 °C. The same measure for `Cc1cc(-c2nc3cccnn3c2-c2ccnc(NC(=O)N3CCOCC3)c2)ccc1F.Cl`: 164 to 166 °C. For `Cc1cc(-c2nc3cccnn3c2-c2ccnc(NC(=O)N3CCC(O)CC3)c2)ccc1F.Cl` the value was 156 to 157 °C; for `Cc1cc(-c2nc3cccnn3c2-c2ccnc(NC(=O)c3ccc(Cl)cc3)c2)ccc1F.Cl`, 264 to 266 °C; for `COc1ccc(C(=O)Nc2cc(-c3c(-c4cccc(Cl)c4)nc4cccnn34)ccn2)cc1.Cl`, 236 to 238 °C.

`Cc1cc(-c2nc3cccnn3c2-c2ccnc(NC(=O)c3ccc(Cl)nc3)c2)ccc1F.Cl` came in with a melting point of 250 to 251 °C.

The compound `Cc1cc(-c2nc3cccnn3c2-c2ccnc(NC(=O)c3ccc(Cl)cc3)c2)ccc1F` (as salt: methanesulfonate) [Example 62, 4-Chloro-N-{4-[2-(4-fluoro-3-methylphenyl)imidazo[1,2-b]pyridazin-3-yl]pyridin-2-yl}benzamide methanesulfonate] had a melting point of 239 to 241 °C. For `COc1ccc2nc(-c3cccc(C)c3)c(-c3ccnc(NC4CCCCC4)c3)n2n1` [Example 9, N-Cyclohexyl-4-[6-methoxy-2-(3-methylphenyl)imidazo[1,2-b]pyridazin-3-yl]pyridin-2-amine] the value was 188 to 189 °C. On to `CSc1ccc2nc(-c3cccc(C)c3)c(-c3ccnc(NC4CCCCC4)c3)n2n1` [Example 10, N-Cyclohexyl-4-[2-(3-methylphenyl)-6-(methylthio)imidazo[1,2-b]pyridazin-3-yl]pyridin-2-amine], for which the melting point lay within 150 to 151 °C. `Cc1cccc(-c2nc3ccc(S(C)(=O)=O)nn3c2-c2ccnc(NC3CCCCC3)c2)c1` [Example 11, N-Cyclohexyl-4-[2-(3-methylphenyl)-6-(methylsulfonyl)imidazo[1,2-b]pyridazin-3-yl]pyridin-2-amine] had a melting point of 196 to 197 °C. For the compound `Cc1cccc(-c2nc3ccc(Cl)nn3c2-c2ccnc(N)c2)c1` [Example 12, 4-[6-Chloro-2-(3-methylphenyl)imidazo[1,2-b]pyridazin-3-yl]pyridin-2-amine], the melting point lay in the range of 247 to 248 °C. For the compound `Cc1cccc(-c2nc3cccnn3c2-c2ccnc(N)c2)c1` [Example 14, 4-[2-(3-Methylphenyl)imidazo[1,2-b]pyridazin-3-yl]pyridin-2-amine], the melting point was in the range of 188 to 189 °C. As to `COc1ccc(C(=O)Nc2cc(-c3c(-c4cccc(C)c4)nc4ccc(Cl)nn34)ccn2)cc1` [Example 18, N-{4-[6-Chloro-2-(3-methylphenyl)imidazo[1,2-b]pyridazin-3-yl]pyridin-2-yl}-4-methoxybenzamide], the melting point is 204 to 205 °C. `CCC(=O)N(C(=O)CC)c1cc(-c2c(-c3cccc(C)c3)nc3cccnn23)ccn1` [Example 22, N-{4-[2-(3-Methylphenyl)imidazo[1,2-b]pyridazin-3-yl]pyridin-2-yl}-N-propionylpropanamide] displayed a melting point of 210 to 211 °C. `Cc1cccc(-c2nc3cccnn3c2-c2ccnc(NC(=O)C(C)O)c2)c1` (stereo not shown) [Example 29, 2-Hydroxy-N-{4-[2-(3-methylphenyl)imidazo[1,2-b]pyridazin-3-yl]pyridin-2-yl}propanamide] displayed a melting point of 223 to 224 °C. For `Cc1cccc(-c2nc3cccnn3c2-c2ccnc(NC(=O)N3CCCCC3)c2)c1` [Example 31, N-{4-[2-(3-Methylphenyl)imidazo[1,2-b]pyridazin-3-yl]pyridin-2-yl}piperidine-1-carboxamide] the value was 173 to 175 °C. The same measure for `Cc1cccc(-c2nc3ccc(Cl)nn3c2-c2ccnc(N)n2)c1` [Example 34, 4-[6-Chloro-2-(3-methylphenyl)imidazo[1,2-b]pyridazin-3-yl]-2-pyrimidinamine]: 237 to 238 °C. The same measure for `Cc1cccc(-c2nc3cccnn3c2-c2ccnc(NCC3CCCCC3)c2)c1` [Example 38, N-(Cyclohexylmethyl)-4-[2-(3-methylphenyl)imidazo[1,2-b]pyridazin-3-yl]pyridin-2-amine]: 128 to 130 °C; for `O=C(Nc1cc(-c2c(-c3ccc(F)cc3)nc3cccnn23)ccn1)c1ccncc1` [Example 40-1, N-{4-[2-(4-fluorophenyl)imidazo[1,2-b]pyridazin-3-yl]pyridin-2-yl}isonicotinamide]: 226 to 227 °C. For `O=C(Nc1cc(-c2c(-c3ccc(F)cc3)nc3cccnn23)ccn1)c1ccc(Cl)nc1` [Example 40-2, 6-chloro-N-{4-[2-(4-fluorophenyl)imidazo[1,2-b]pyridazin-3-yl]pyridin-2-yl}nicotinamide], the melting point is 247 to 248 °C. For `Cc1cc(-c2nc3c(C)cc(Cl)nn3c2-c2ccnc(NC(=O)c3ccc(F)cc3)c2)ccc1F` [Example 41-2, N-{4-[6-chloro-2-(4-fluoro-3-methylphenyl)-8-methylimidazo[1,2-b]pyridazin-3-yl]-2-pyridyl}-4-fluorobenzamide] the value was 235 to 236 °C. `Cc1cc(-c2nc3cc(C(C)(C)C)c(Cl)nn3c2-c2ccnc(NC(=O)c3ccc(F)cc3)c2)ccc1F` [Example 41-3, N-{4-[7-tert-butyl-6-chloro-2-(4-fluoro-3-methylphenyl)imidazo[1,2-b]pyridazin-3-yl]-2-pyridyl}-4-fluorobenzamide] had a melting point of 181 to 182 °C. For `Cc1cc(-c2nc3c(C)ccnn3c2-c2ccnc(NC(=O)c3ccc(F)cc3)c2)ccc1F` [Example 41-4, N-{4-[2-(4-fluoro-3-methylphenyl)-8-methylimidazo[1,2-b]pyridazin-3-yl]-2-pyridyl}-4-fluorobenzamide] the value was 243 to 244 °C. For `Cc1cc(-c2nc3cc(C(C)(C)C)cnn3c2-c2ccnc(NC(=O)c3ccc(F)cc3)c2)ccc1F` [Example 41-5, N-{4-[7-tert-butyl-2-(4-fluoro-3-methylphenyl)imidazo[1,2-b]pyridazin-3-yl]-2-pyridyl}-4-fluorobenzamide] the value was 201 to 202 °C; for `Cc1cc(-c2nc3cccnn3c2-c2ccnc(NC(=O)CC(F)(F)F)c2)ccc1F` [Example 42-1, 3,3,3-trifluoro-N-{4-[2-(4-fluoro-3-methylphenyl)imidazo[1,2-b]pyridazin-3-yl]pyridin-2-yl}propanamide], 220 to 221 °C.

Take `Cc1cc(-c2nc3cccnn3c2-c2ccnc(NC(=O)C(C)C)c2)ccc1F` [Example 42-2, N-{4-[2-(4-fluoro-3-methylphenyl)imidazo[1,2-b]pyridazin-3-yl]pyridin-2-yl}-2-methylpropanamide]: the melting point lay in the range of 214 to 215 °C. The same measure for `CCCC(=O)Nc1cc(-c2c(-c3ccc(F)c(C)c3)nc3cccnn23)ccn1` [Example 42-4, N-{4-[2-(4-fluoro-3-methylphenyl)imidazo[1,2-b]pyridazin-3-yl]pyridin-2-yl}butanamide]: 181 to 183 °C; for `CSCCC(=O)Nc1cc(-c2c(-c3ccc(F)c(C)c3)nc3cccnn23)ccn1` [Example 42-5, N-{4-[2-(4-fluoro-3-methylphenyl)imidazo[1,2-b]pyridazin-3-yl]pyridin-2-yl}-3-(methylthio)propanamide]: 158 to 159 °C. The compound `Cc1cc(-c2nc3cccnn3c2-c2ccnc(NC(=O)c3ccc(Cl)cc3)c2)ccc1F` [Example 42-7, 4-chloro-N-{4-[2-(4-fluoro-3-methylphenyl)imidazo[1,2-b]pyridazin-3-yl]pyridin-2-yl}benzamide] gave a melting point of 208 to 209 °C. `COc1cc(F)ccc1C(=O)Nc1cc(-c2c(-c3ccc(F)c(C)c3)nc3cccnn23)ccn1` [Example 42-8, 4-fluoro-N-{4-[2-(4-fluoro-3-methylphenyl)imidazo[1,2-b]pyridazin-3-yl]pyridin-2-yl}-2-methoxybenzamide] returned a melting point of 251 to 252 °C. As for `CSc1ccc(C(=O)Nc2cc(-c3c(-c4ccc(F)c(C)c4)nc4cccnn34)ccn2)cc1` [Example 42-9, N-{4-[2-(4-fluoro-3-methylphenyl)imidazo[1,2-b]pyridazin-3-yl]pyridin-2-yl}-4-(methylthio)benzamide], the melting point is 191 to 192 °C. `Cc1cc(-c2nc3cccnn3c2-c2ccnc(NC(=O)c3ccc(N(C)C)cc3)c2)ccc1F` [Example 42-10, 4-(dimethylamino)-N-{4-[2-(4-fluoro-3-methylphenyl)imidazo[1,2-b]pyridazin-3-yl]pyridin-2-yl}benzamide] came in with a melting point of 245 to 246 °C. The same measure for `COc1cc(C(=O)Nc2cc(-c3c(-c4ccc(F)c(C)c4)nc4cccnn34)ccn2)ccc1F` [Example 42-11, 4-fluoro-N-{4-[2-(4-fluoro-3-methylphenyl)imidazo[1,2-b]pyridazin-3-yl]pyridin-2-yl}-3-methoxybenzamide]: 217 to 218 °C; for `COc1ccc(C(=O)Nc2cc(-c3c(-c4ccc(F)c(C)c4)nc4cccnn34)ccn2)cc1F` [Example 42-12, 3-fluoro-N-{4-[2-(4-fluoro-3-methylphenyl)imidazo[1,2-b]pyridazin-3-yl]pyridin-2-yl}-4-methoxybenzamide]: 202 to 203 °C; for `Cc1cc(-c2nc3cccnn3c2-c2ccnc(NC(=O)c3ccc(C(F)(F)F)cc3)c2)ccc1F` [Example 42-13, N-{4-[2-(4-fluoro-3-methylphenyl)imidazo[1,2-b]pyridazin-3-yl]pyridin-2-yl}-4-(trifluoromethyl)benzamide]: 224 to 225 °C. Compound `Cc1cc(-c2nc3cccnn3c2-c2ccnc(NC(=O)c3ccc(OC(F)(F)F)cc3)c2)ccc1F` [Example 42-14, N-{4-[2-(4-fluoro-3-methylphenyl)imidazo[1,2-b]pyridazin-3-yl]pyridin-2-yl}-4-(trifluoromethoxy)benzamide] gave a melting point of 225 to 226 °C. For `Cc1cc(-c2nc3cccnn3c2-c2ccnc(NC(=O)c3ccc(Cl)cc3C)c2)ccc1F` [Example 42-15, 4-chloro-N-{4-[2-(4-fluoro-3-methylphenyl)imidazo[1,2-b]pyridazin-3-yl]pyridin-2-yl}-2-methylbenzamide] the value was 196 to 197 °C.
